Test [1] deals with Th17 cells. Briefly: Mouse Th17 Cell Differentiation Test (IL-17A in culture supernatant, ELISA). Format: cell-based. Particulars: inhibitory rate at 10 μM of test compound; mouse CD4 positive naive T cells, 4 days, IL-17A by ELISA; 10 µM. The procedure:
CD4 positive naive T cells were collected from the spleen cells of BALB/c mice (female, 8-11w, Charles River Laboratories Japan, Inc.) using CD4+CD62L+ T Cell Isolation kit II (Miltenyi Biotec). The CD4 positive naive T cells in a 96 well plate (3×10^5 cells/well) were stimulated (37° C. for culture) with anti-mouse CD3ε antibody (Bio X cell) (10 μg/mL, solid phase) and anti-CD28 antibody (Bio X cell) (5 μg/mL) for 4 days in the presence of anti-IFN-γ antibody (BioLegend), anti-IL-4 antibody (BioLegend), anti-IL-2 antibody (BioLegend), IL-6, TGF-β and IL-23 to differentiate into Th17 cells. The compound was dissolved in DMSO and then added thereto. The cells were cultured under these conditions for 4 days, and differentiation of the Th17 cells was evaluated by using the concentration of IL-17A, which was measured by ELISA, in the culture supernatant obtained by centrifugation.

Test [2] concerns Th17 cells. Briefly: Human Th17 Cell Differentiation Test (IL-17A in culture supernatant, ELISA). The test is classed as cell-based. The note with it: 144 h; inhibitory rate at 10 μM of test compound; human CD4 positive naive T cells, 6 days, IL-17A by ELISA. The protocol: CD4 positive naive T cells were isolated from peripheral blood mononuclear cells (PBMC) collected from human peripheral blood by a density gradient centrifugation method. The CD4 positive naive T cells were seeded in a 96 well plate (2×10^4 cells/well), and stimulated (37° C. for culture) with anti-CD 3/28Ab Dynabeads (Invitrogen) for 6 days in the presence of IL-1β, IL-6, IL-23, TGFβ, anti-IFNγ Ab (BioLegend) and anti-IL-4 Ab (BioLegend) to differentiate into Th17 cells. The compound was dissolved in DMSO and then added thereto. After culture for 6 days, the concentration of IL-17A in the culture supernatant obtained by centrifugation was measured by ELISA to evaluate differentiation of the Th17 cells.

The next test deals with human PBMC. Briefly: IL17 Production Test in Human PBMC. Format: cell-based. The note with it: 72 h, inhibitory rate at 10 μM of test compound, anti-CD3/CD28 stimulation, 3 days, IL-17A by ELISA. The procedure:
Peripheral blood mononuclear cells (PBMC) collected from human peripheral blood by a density gradient centrifugation method were stimulated by Dynabeads (registered trade mark; anti-CD3/CD28 antibody) and cultured at 37° C. for 3 days. The compound was dissolved in DMSO and then added thereto. After culture for 3 days under such conditions, the concentration of IL-17A in the culture supernatant obtained by centrifugation was measured by ELISA to evaluate the effect of the compound on IL-17 production.

Test [3] relates to IL-17A gene expression. Briefly: IL-17A gene expression induced by anti-CD3 antibody stimulation in mouse colon. The test is classed as in vivo. Particulars: po, Balb/c mice. The procedure:
(§1) An anti-CD3 antibody (5 μg/500 μL/mouse, BioXcell) or saline (500 μL/mouse) was intraperitoneally administered to Balb/c mice (female, 8 weeks old). Three hours after the administration, the mice were anesthetized by ether inhalation, and euthanized by cervical spine fracture dislocation. Then, the mice underwent laparotomy, and colons were isolated. The obtained colons were washed with saline, and then, immersed in RNA stabilization buffer (RNAlater, QIAGEN) at 4° C. for 18 hours or longer. Meanwhile, a suspension of a compound in 0.5% methylcellulose was orally administered an hour before administration of anti-CD3 antibody.
The colon tissues were retrieved from RNAlater, and immediately immersed in 5 mL of RLT buffer (RNeasy Mini Kit, QIAGEN). Then, the tissues were homogenized at room temperature. Total RNA was extracted from the homogenized solution in accordance with the protocol of RNeasy Mini Kit (QIAGEN), and cDNA was prepared using high capacity RNA-to-cDNA Kit (Applied biosystems). mRNAs of various cytokines were detected by realtime-PCR (TaqMan PCR) using the obtained cDNA as a template. TaqMan universal master mixII (Applied biosystems) was used as PCR buffer, and TaqMan Gene Expression Assays (Applied biosystems): Mm00439619_m1 (IL-17A), Mm00801778 m1 (IFN-γ) and 43252341E (β-actin) were used for detection of each cytokine gene, respectively. The expression levels of each gene were shown as normalized values calculated using β-actin expression level.
All the data were shown as mean values±SE. Statistical analyses were performed by Student's t test and William's test.

Another test relates to IFN-γ gene expression. Briefly: IFN-γ gene expression induced by anti-CD3 antibody stimulation in mouse colon. The test is classed as in vivo. Particulars: 30, 100 and 300 mg/kg, po, Balb/c mice. The protocol:
as §1
The colon tissues were retrieved from RNAlater, and immediately immersed in 5 mL of RLT buffer (RNeasy Mini Kit, QIAGEN). Then, the tissues were homogenized at room temperature. Total RNA was extracted from the homogenized solution in accordance with the protocol of RNeasy Mini Kit (QIAGEN), and cDNA was prepared using high capacity RNA-to-cDNA Kit (Applied biosystems). mRNAs of various cytokines were detected by realtime-PCR (TaqMan PCR) using the obtained cDNA as a template. […] The expression levels of each gene were shown as normalized values calculated using β-actin expression level. […]

Test [4] relates to IL-17A gene expression. Briefly: IL-17A gene expression in lymph node of EAE rat model. The test is classed as in vivo. Particulars: 30, 100 and 300 mg/kg, po twice a day; EAE-sensitized Lewis rat, 5th day. The protocol: A killed Mycobacterium tuberculosis, H37Ra (DIFCO), was suspended at the concentration of 2 mg/mL in Freund Incomplete adjuvant (DIFCO), and 5 mg of MBP (Sigma) was dissolved in 1.25 mL of saline (Otsuka). These two solutions were mixed at the ratio of 1:1 using glass syringe with a three-way stopcock until emulsion was obtained. The emulsion was intracutaneously administered to the bottom of the right foot of Lewis rats (male, 7 weeks old) at 0.1 mL/rat.
A suspension of the compound of Example 14 in 0.5% methylcellulose was orally administered twice a day from the day of sensitization at the dose of 30, 100 or 300 mg/kg. The last administration was performed on the 5th day after sensitization, and an autopsy was performed 4 hours after the last administration.
The autopsy was performed on the 5th day after the sensitization, and popliteal lymph nodes of the right leg were collected. […] The synthesized cDNA was detected by PCR reaction using Taqman Gene Expression Master Mix (Applied Biosystems) and 7900HT Fast realtime PCR system (Applied Biosystems) (Stage 1: 50° C., 2 min, Stage 2: 95° C., 10 min, Stage 3: 95° C., 15 sec, 60° C., 1 min, 40 cycle). […]

As to `CCn1c2ccccc2c2cc(NC(=O)CC(C)CC(=O)Nc3ccc(C#N)c(Cl)c3)ccc21` (centres unmarked) [Example 14, N-(3-chloro-4-cyanophenyl)-N′-(9-ethyl-9H-carbazol-3-yl)-3-methylpentanediamide], in the test with Th17 cells [1], the “inhibitory rate (%)” value is reported as 96.0%. Besides, the inhibition at 10 µM with Th17 cells [2] was 99.3%; in the test on human PBMC, 95%. Besides, the results for the “inhibition rate of IL-17A expression” value in the test with IL-17A gene expression [3] (30 mg/kg), in the test on IL-17A gene expression [3] (100 mg/kg) and with IL-17A gene expression [3] (300 mg/kg) were 10%, 25% and 53%, respectively. The “effect on IFN-γ expression” value in the test with IFN-γ gene expression is listed as “did not affect IFN-γ expression”. Besides, the “effect on increase in IL-17A gene expression in lymph node” value in the test on IL-17A gene expression [4] is given as “tended to suppress the increase in IL-17A gene expression”.

The values above are taken from US9120776B2, “Condensed heterocyclic compound” (Takeda Pharmaceutical Company Limited, priority 2011, dated 2015).
